Measurements reported in ChEMBL document CHEMBL5344406, “1,2,3-Triazole-containing hybrids with potential antibacterial activity against ESKAPE pathogens” (2022).
Converted amounts (≈) assume the structure as drawn.

Columns and labels:
Type in all cases: functional
Staphylococcus aureus [1] = test: Antibacterial activity against Staphylococcus aureus ATCC 29213 assessed as bacterial growth inhibition incubated for 16 to 20 hrs by CLSI based broth microdilution method; details: time 16-20 hrs
Pseudomonas aeruginosa [2] = test: Antibacterial activity against Pseudomonas aeruginosa ATCC 27853 assessed as bacterial growth inhibition incubated for 16 to 20 hrs by CLSI based broth microdilution method; details: time 16-20 hrs
Staphylococcus aureus [3] = test: Antibacterial activity against Staphylococcus aureus ATCC 25923 assessed as bacterial growth inhibition incubated for 18 to 20 hrs by broth microdilution method; details: time 18-20 hrs
Escherichia coli [4] = test: Antibacterial activity against Escherichia coli ATCC 25922 assessed as bacterial growth inhibition incubated for 16 to 20 hrs by CLSI based broth microdilution method; details: time 16-20 hrs
Staphylococcus aureus [5] = test: Antibacterial activity against methicillin-resistant Staphylococcus aureus assessed as bacterial growth inhibition
Staphylococcus aureus [6] = test: Antibacterial activity against Staphylococcus aureus 209p ATCC 6538P assessed as bacterial growth inhibition incubated for 1 to 2 days by serial dilution method; details: time 1-2 day
Staphylococcus aureus [7] = test: Antibacterial activity against Staphylococcus aureus Viotko assessed as bacterial growth inhibition incubated for 1 to 2 days by serial dilution method; details: time 1-2 day
Staphylococcus aureus [8] = test: Antibacterial activity against Staphylococcus aureus C-18 clinical isolate assessed as bacterial growth inhibition incubated for 1 to 2 days by serial dilution method; details: time 1-2 day
Bacillus subtilis [9] = test: Antibacterial activity against Bacillus subtilis assessed as bacterial growth inhibition incubated for 24 hrs by serial dilution method
Salmonella enterica = test: Antibacterial activity against Salmonella enterica assessed as bacterial growth inhibition incubated for 24 hrs by serial dilution method
Escherichia coli [10] = test: Antibacterial activity against Escherichia coli assessed as bacterial growth inhibition incubated for 24 hrs by serial dilution method
Staphylococcus aureus [11] = test: Antibacterial activity against Staphylococcus aureus assessed as bacterial growth inhibition incubated for 24 hrs by serial dilution method
Pseudomonas aeruginosa [12] = test: Antibacterial activity against Pseudomonas aeruginosa assessed as bacterial growth inhibition incubated for 24 hrs by serial dilution method
Bacillus subtilis [13] = test: Antibacterial activity against Bacillus subtilis assessed as bacterial growth inhibition incubated for 18 to 20 hrs by broth microdilution method; details: time 18-20 hrs
Escherichia coli [14] = test: Potency index, ratio of Streptomycin MIC to test compound MIC for antibacterial activity against Escherichia coli JM109 assessed as bacterial growth inhibition incubated for 18 to 20 hrs by broth microdilution method; details: time 18-20 hrs
Escherichia coli [15] = test: Antibacterial activity against Escherichia coli JM109 assessed as bacterial growth inhibition incubated for 18 to 20 hrs by broth microdilution method; details: time 18-20 hrs
Bacillus subtilis [16] = test: Potency index, ratio of Streptomycin MIC to test compound MIC for antibacterial activity against Bacillus subtilis assessed as bacterial growth inhibition incubated for 18 to 20 hrs by broth microdilution method; details: time 18-20 hrs
Acinetobacter baumannii = test: Antibacterial activity against Ciprofloxacin-resistant Acinetobacter baumannii assessed as bacterial growth inhibition
Staphylococcus aureus [17] = test: Antibacterial activity against Ciprofloxacin-resistant Staphylococcus aureus assessed as bacterial growth inhibition
Escherichia coli [18] = test: Antibacterial activity against Ciprofloxacin-resistant Escherichia coli assessed as bacterial growth inhibition
Pseudomonas aeruginosa [19] = test: Potency index, ratio of Ciprofloxacin MIC to test compound MIC for antibacterial activity against Pseudomonas aeruginosa assessed as bacterial growth inhibition by serial dilution method
Pseudomonas aeruginosa [20] = test: Antibacterial activity against Pseudomonas aeruginosa assessed as bacterial growth inhibition by serial dilution method
Escherichia coli [21] = test: Antibacterial activity against Escherichia coli MTCC 1687 assessed as bacterial growth inhibition by serial dilution method
Staphylococcus aureus [22] = test: Antibacterial activity against Staphylococcus aureus MTCC 737 assessed as bacterial growth inhibition by serial dilution method
Staphylococcus aureus [23] = test: Potency index, ratio of Ciprofloxacin MIC to test compound MIC for antibacterial activity against Staphylococcus aureus MTCC 737 assessed as bacterial growth inhibition by serial dilution method
Escherichia coli [24] = test: Potency index, ratio of Ciprofloxacin MIC to test compound MIC for antibacterial activity against Escherichia coli MTCC 1687 assessed as bacterial growth inhibition by serial dilution method
Staphylococcus aureus [25] = test: Potency index, ratio of Ciprofloxacin MIC to test compound MIC for antibacterial activity against Staphylococcus aureus MTCC 96 assessed as bacterial growth inhibition by broth microdilution method
Staphylococcus aureus [26] = test: Antibacterial activity against Staphylococcus aureus MTCC 96 assessed as bacterial growth inhibition by broth microdilution method
Streptococcus pyogenes [27] = test: Potency index, ratio of Ciprofloxacin MIC to test compound MIC for antibacterial activity against Streptococcus pyogenes MTCC 442 assessed as bacterial growth inhibition by broth microdilution method
Escherichia coli [28] = test: Antibacterial activity against Escherichia coli MTCC 443 assessed as bacterial growth inhibition by broth microdilution method
Streptococcus pyogenes [29] = test: Antibacterial activity against Streptococcus pyogenes MTCC 442 assessed as bacterial growth inhibition by broth microdilution method
Escherichia coli [30] = test: Potency index, ratio of Ciprofloxacin MIC to test compound MIC for antibacterial activity against Escherichia coli MTCC 443 assessed as bacterial growth inhibition by broth microdilution method
Pseudomonas aeruginosa [31] = test: Potency index, ratio of Ciprofloxacin MIC to test compound MIC for antibacterial activity against Pseudomonas aeruginosa MTCC 1688 assessed as bacterial growth inhibition by broth microdilution method
Pseudomonas aeruginosa [32] = test: Antibacterial activity against Pseudomonas aeruginosa MTCC 1688 assessed as bacterial growth inhibition by broth microdilution method

For `CC(=O)OC[C@@H]1O[C@H](n2cc(CNC(=O)c3ccc(-c4ccc(Br)cc4)o3)nn2)[C@@H](OC(C)=O)[C@H](OC(C)=O)[C@H]1OC(C)=O`, the MIC (Staphylococcus aureus [1]) was > 250 µg/mL, the MIC (Pseudomonas aeruginosa [2]) was > 250 µg/mL and the MIC (Staphylococcus aureus [3]) was > 250 µg/mL. For the same compound, the MIC (Escherichia coli [4]) was > 250 µg/mL.
`O=C1C(=O)N(CCn2cc(COc3cccc4cccnc34)nn2)c2c(Br)cc(Br)cc21` showed an MIC (Staphylococcus aureus [5]) of 15.2 µg/mL (≈ 27.3 µM).
Work on `O=C(O)c1ccc(-n2cc(CNC(=O)c3cc4ccc(=O)oc4cc3O)nn2)cc1` yielded an MIC (Staphylococcus aureus [6]) of 0.16 µg/mL (≈ 0.394 µM), an MIC (Staphylococcus aureus [7]) of 3.75 µg/mL (≈ 9.23 µM) and an MIC (Staphylococcus aureus [8]) of 0.65 µg/mL (≈ 1.6 µM).
With `CC(C)C[C@H](NC(=O)OC(C)(C)C)C(=O)OCc1cn(Cc2ccc(F)cc2)nn1` the MIC (Bacillus subtilis [9]) was 3.12 µg/mL (≈ 7.42 µM), the MIC (Salmonella enterica) was 3.12 µg/mL (≈ 7.42 µM) and the MIC (Escherichia coli [10]) was 3.12 µg/mL (≈ 7.42 µM). The MIC (Staphylococcus aureus [11]) was 3.12 µg/mL (≈ 7.42 µM) and the MIC (Pseudomonas aeruginosa [12]) was 3.12 µg/mL (≈ 7.42 µM).
`Cc1cc2cc(C#CCCCCCCc3cn(C4(C(C)C)Oc5cc6oc(=O)ccc6cc5C4=O)nn3)c(=O)oc2cc1O` (centres undefined) showed an MIC (Bacillus subtilis [13]) of 0.02 µg/mL (≈ 0.0337 µM), a Ratio (Escherichia coli [14]) of 6.7 and an MIC (Escherichia coli [15]) of 0.15 µg/mL (≈ 0.253 µM). It also gave a Ratio (Bacillus subtilis [16]) of 100.
Compound `CCOc1c(NC(=O)c2ccc(NC(=O)c3ccc(NC(=O)[C@H](Cc4c[nH]nn4)NC(=O)/C(C)=C/c4ccc(O)cc4)cc3)c(OCC)c2O)ccc(C(=O)O)c1O` has an MIC (Acinetobacter baumannii) of 0.031 µg/mL (≈ 0.0391 µM), an MIC (Staphylococcus aureus [17]) of 0.031 µg/mL (≈ 0.0391 µM) and an MIC (Escherichia coli [18]) of 0.031 µg/mL (≈ 0.0391 µM).
For `COc1cccc2cc(C(=O)c3cn(-c4ccc(Cl)cc4)nn3)c(=O)oc12`, the Ratio (Pseudomonas aeruginosa [19]) was 2, the MIC (Pseudomonas aeruginosa [20]) was 6.25 µg/mL (≈ 16.4 µM) and the MIC (Escherichia coli [21]) was 6.25 µg/mL (≈ 16.4 µM). For the same compound, the MIC (Staphylococcus aureus [22]) was 6.25 µg/mL (≈ 16.4 µM), the Ratio (Staphylococcus aureus [23]) was 2 and the Ratio (Escherichia coli [24]) was 2.
Compound `CN(C)Cc1cn([C@@H]2C(=O)N3[C@@H]2SC(C)(C)[C@@H]3C(=O)O)nn1` has a Ratio (Staphylococcus aureus [25]) of 2.5, an MIC (Staphylococcus aureus [26]) of 0.5 µg/mL (≈ 1.54 µM) and a Ratio (Streptococcus pyogenes [27]) of 2.5. For the same compound, the MIC (Escherichia coli [28]) was 0.5 µg/mL (≈ 1.54 µM), the MIC (Streptococcus pyogenes [29]) was 0.5 µg/mL (≈ 1.54 µM) and the Ratio (Escherichia coli [30]) was 2.5. The Ratio (Pseudomonas aeruginosa [31]) was 2.5 and the MIC (Pseudomonas aeruginosa [32]) was 0.5 µg/mL (≈ 1.54 µM).
